Test results published in paper PMC11381307 (Frontiers in Pharmacology, 2024).

What was measured:
[1] = cited from earlier work
[2] = target: MRP2 (Homo sapiens, UniProt Q92887); test: Inhibitory effect of seven drugs on MRP2-mediated E217βG uptake (vesicles); assay type: biochemical; set-up: purchased GenoMembrane (Tokyo, Japan) Product No. 0001; conditions: 50 μM or 50 μg/mL; N = 2
Method: Briefly, 10 μL of vesicle membranes and 5 μL of Reagent G were mixed and pre-incubated with 10 μL of the compounds or Buffer A2 (used as no compound-treatment control [NC]) at 37°C for 5 min. […] The two mixtures were mixed before the incubation and then incubated for an additional 5 min. […]
Regarding the inhibition assay, the methods used to calculate the transported activity and UR were similar to those used for the substrate assay. However, please refer to the SLC inhibition assay for the equations for calculating the UR percentages relative to the NC and IC50 values of compounds on MRP2 activity and MRP2-mediated MPAG transport.
(§1) Note: the peak area of probe substrate transported by MRP2, OAT3, OATP1B1 or OATP1B3 was determined by LC-MS method. Then, the relative uptake rate of probe substrate in the presence of seven drugs was calculated by using equation 7 or 11. When the relative uptake rate was decreased by more than 50%, indicating the potential inhibitory of drug on the transporter.

[3] = target: T1, OAT3 (Homo sapiens, UniProt Q8TCC7); test: Inhibitory effect of seven drugs on OAT3-mediated ES uptake; assay type: cell-based; set-up: host or cells: HEK293; conditions: 50 μM or 50 μg/mL; N = 2
T1 sequence (Q8TCC7 1-542): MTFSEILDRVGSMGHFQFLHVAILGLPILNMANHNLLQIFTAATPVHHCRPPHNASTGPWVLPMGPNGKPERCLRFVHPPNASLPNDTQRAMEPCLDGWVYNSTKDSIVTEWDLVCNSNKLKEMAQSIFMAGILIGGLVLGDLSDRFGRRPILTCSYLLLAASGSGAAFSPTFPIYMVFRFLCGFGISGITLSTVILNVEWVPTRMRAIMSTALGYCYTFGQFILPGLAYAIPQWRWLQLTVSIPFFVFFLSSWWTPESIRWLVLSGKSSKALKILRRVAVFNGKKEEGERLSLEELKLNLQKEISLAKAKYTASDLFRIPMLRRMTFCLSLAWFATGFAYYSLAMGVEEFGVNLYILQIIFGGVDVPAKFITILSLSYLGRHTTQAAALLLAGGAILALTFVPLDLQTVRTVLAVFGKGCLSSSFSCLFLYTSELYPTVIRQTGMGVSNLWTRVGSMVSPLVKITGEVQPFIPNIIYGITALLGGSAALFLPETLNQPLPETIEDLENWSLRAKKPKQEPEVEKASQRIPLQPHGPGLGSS
Method: as §1

[4] = target: T2, OATP1B1 (Homo sapiens, UniProt Q9Y6L6); test: Inhibitory effect of seven drugs on OATP1B1-mediated E217βG uptake; assay type: cell-based; conditions: 50 μM or 50 μg/mL; N = 2
T2 construct: host or cells: HEK293
T2 sequence (Q9Y6L6 1-691): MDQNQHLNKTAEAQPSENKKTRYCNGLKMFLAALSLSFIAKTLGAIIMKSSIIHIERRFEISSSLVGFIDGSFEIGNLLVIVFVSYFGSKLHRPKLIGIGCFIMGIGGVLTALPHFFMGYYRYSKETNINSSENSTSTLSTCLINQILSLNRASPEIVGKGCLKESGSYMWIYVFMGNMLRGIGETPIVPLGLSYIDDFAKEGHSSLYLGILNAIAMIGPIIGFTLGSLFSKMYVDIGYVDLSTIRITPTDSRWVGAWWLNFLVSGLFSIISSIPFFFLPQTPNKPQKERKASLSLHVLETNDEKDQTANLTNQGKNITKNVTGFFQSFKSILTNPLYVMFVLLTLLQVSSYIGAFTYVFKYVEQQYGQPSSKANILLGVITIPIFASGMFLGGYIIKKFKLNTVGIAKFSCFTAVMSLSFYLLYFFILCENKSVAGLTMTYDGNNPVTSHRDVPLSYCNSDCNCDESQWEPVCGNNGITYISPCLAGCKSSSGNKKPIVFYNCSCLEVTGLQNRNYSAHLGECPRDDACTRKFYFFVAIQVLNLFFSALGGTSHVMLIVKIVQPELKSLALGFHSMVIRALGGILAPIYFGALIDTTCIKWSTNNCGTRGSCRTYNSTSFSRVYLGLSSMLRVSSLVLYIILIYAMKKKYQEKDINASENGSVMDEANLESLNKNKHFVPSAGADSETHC
Method: as §1

[5] = target: T3, OATP1B3 (Homo sapiens, UniProt Q9NPD5); test: Inhibitory effect of seven drugs on OATP1B3-mediated E217βG uptake; assay type: cell-based; conditions: 50 μM or 50 μg/mL; N = 2
T3 construct: host or cells: HEK293
T3 sequence (Q9NPD5 1-702): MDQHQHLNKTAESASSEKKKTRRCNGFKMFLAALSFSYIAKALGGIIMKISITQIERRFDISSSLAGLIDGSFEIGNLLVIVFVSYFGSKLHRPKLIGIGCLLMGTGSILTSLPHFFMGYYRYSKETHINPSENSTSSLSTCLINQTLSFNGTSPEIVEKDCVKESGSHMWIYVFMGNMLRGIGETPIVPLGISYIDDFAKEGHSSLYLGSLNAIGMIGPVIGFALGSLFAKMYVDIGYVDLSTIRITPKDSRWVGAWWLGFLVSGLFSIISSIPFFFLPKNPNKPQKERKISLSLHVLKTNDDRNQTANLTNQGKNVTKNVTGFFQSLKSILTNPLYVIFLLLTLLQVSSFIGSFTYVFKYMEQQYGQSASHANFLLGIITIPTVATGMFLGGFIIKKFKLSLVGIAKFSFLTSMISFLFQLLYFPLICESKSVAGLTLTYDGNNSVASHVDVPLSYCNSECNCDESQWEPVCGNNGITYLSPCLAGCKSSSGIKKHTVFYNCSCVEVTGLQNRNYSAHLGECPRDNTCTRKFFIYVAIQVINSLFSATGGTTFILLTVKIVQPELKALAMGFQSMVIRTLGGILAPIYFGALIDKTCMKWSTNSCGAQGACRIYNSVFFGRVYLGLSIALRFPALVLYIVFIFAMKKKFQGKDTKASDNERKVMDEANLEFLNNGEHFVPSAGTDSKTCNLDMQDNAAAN
Method: as §1

[6] = test system: UGT; test: Human hepatocyte UGT induction study, conversion of MPA to MPAG; assay type: cell-based; conditions: for formation of MPAG, % of NC (Mean): 96 h treatment
Method: Cryopreserved human hepatocytes were recovered in a pre-warmed incubation medium, diluted to a viable cell density (∼0.7 × 10^6 cells/mL) using a plating medium, followed by the addition of 100 μL hepatocytes into each well of a collagen I-coated 96-well plate. The cell monolayer was formed after an overnight incubation period at 37°C under 5%CO2. The plating medium was then replaced with an incubation medium for further culture. On the second day, an incubation medium containing different concentrations of either compound, the inducer omeprazole (final concentration of 50 μM), or vehicle (0.1% [v/v] dimethyl sulfoxide [DMSO]). […] At the end of the incubation period, the medium was replaced with a substrate for UGT and MPA. Following a further incubation of 15 or 30 min at 37°C under 5% CO2, 100 μL of the reaction medium was transferred to 400 μL of ice-cold methanol containing internal standard (IS) to terminate the reaction. Finally, the supernatant was collected after centrifugation at 4,000 rpm for 10 min and analyzed for glucuronide formation using liquid chromatography-mass spectrometry (LC-MS).
The formation of glucuronide metabolites, as determined with LC-MS, was used to calculate the formation rate linked to enzyme activity according to Equation 1. Formation rate pmol/10^6 cells/min=amount of glucuronide metabolites formation pmol/number of cells 10^6 cells×incubation time min (1)
The percentage of enzyme activity relative to the NC (%) was determined using Equation 2. Relative enzyme activity % of NC=formation rate in the compound−treated group/that in NC×100 (2)

[7] = target: T1, OAT3; test: Transporter substrate study using HEK293-OAT3 cells; conditions: for uptake ratio (UR) mediated by OAT3: 10 μM
[8] = target: T4, human OAT1 (Homo sapiens, UniProt Q4U2R8)
T4 sequence (Q4U2R8 1-563): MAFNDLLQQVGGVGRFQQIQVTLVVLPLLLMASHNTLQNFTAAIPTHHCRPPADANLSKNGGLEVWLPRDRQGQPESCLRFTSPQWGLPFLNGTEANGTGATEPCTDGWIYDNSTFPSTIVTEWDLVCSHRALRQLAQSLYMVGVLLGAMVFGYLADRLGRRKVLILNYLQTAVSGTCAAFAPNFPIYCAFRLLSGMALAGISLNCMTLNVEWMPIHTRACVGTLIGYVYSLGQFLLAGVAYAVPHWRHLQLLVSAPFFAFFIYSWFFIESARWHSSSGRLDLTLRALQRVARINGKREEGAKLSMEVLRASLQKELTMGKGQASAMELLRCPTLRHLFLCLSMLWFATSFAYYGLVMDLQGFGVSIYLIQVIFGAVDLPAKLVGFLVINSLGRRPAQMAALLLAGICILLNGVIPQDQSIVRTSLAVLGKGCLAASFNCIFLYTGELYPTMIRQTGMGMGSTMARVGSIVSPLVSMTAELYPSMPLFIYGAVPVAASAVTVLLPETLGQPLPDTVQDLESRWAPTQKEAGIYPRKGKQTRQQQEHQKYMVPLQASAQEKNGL

[9] = criterion UR ≥2.0 and inhibition ≥50%

Sequence of MRP2 (Q92887 whole entry): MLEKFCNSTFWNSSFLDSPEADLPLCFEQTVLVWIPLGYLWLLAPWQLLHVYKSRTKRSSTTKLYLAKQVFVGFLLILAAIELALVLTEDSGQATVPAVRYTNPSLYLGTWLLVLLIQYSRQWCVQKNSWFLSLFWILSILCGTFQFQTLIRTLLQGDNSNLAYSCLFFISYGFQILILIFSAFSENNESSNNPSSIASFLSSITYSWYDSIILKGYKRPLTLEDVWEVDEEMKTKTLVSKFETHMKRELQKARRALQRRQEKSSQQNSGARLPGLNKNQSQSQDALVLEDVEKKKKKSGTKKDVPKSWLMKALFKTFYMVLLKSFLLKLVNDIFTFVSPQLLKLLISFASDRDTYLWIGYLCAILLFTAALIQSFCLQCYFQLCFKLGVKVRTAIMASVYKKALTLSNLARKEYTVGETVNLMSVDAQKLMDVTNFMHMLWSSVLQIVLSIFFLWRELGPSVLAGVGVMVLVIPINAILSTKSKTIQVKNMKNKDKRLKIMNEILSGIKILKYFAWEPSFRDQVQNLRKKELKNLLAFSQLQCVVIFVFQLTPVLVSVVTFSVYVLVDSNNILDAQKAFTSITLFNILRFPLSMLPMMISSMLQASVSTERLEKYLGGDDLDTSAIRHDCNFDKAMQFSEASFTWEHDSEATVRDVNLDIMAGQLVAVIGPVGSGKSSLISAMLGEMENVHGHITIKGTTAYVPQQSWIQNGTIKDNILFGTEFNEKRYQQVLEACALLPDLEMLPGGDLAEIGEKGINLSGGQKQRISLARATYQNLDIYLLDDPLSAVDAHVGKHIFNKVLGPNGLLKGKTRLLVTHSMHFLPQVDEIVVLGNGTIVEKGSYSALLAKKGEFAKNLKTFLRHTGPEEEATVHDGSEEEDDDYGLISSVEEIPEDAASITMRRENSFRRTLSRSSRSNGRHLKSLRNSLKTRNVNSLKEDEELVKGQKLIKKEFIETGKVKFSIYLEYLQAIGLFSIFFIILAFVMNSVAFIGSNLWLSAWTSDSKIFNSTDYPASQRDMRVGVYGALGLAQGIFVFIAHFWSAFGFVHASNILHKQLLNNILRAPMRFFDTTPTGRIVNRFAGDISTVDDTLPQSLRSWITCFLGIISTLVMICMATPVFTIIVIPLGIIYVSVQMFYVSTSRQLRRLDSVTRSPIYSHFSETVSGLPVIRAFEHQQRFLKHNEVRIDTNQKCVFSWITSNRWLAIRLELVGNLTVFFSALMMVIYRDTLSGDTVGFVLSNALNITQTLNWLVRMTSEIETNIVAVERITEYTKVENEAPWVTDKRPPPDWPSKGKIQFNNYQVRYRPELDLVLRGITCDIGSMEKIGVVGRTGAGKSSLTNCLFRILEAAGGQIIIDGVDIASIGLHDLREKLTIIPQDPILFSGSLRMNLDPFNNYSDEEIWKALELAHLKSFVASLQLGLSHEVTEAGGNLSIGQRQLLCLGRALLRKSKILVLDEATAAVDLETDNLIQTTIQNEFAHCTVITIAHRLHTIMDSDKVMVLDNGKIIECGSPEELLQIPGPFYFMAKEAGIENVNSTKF

COc1c(C)c2c(c(O)c1C/C=C(\C)CCC(=O)O)C(=O)OC2 [MPA, mycophenolic acid]
exposure lower in the early phase after transplantation than in the stable period ([1]; similar dose of MMF, ref Shaw et al., 2003): 30%–50%

COc1ccnc(C[S+]([O-])c2nc3ccc(OC(F)F)cc3[nH]2)c1OC (stereo not shown) [Pantoprazole, pantoprazole]
Relative net uptake rate (% of NC), Mean, MRP2-mediated E217βG uptake [2]: 134 % of NC | Relative net uptake rate (% of NC), Mean, OAT3-mediated ES uptake [3]: 87.2 % of NC | Relative net uptake rate (% of NC), Mean, OATP1B1-mediated E217βG uptake [4]: 115 % of NC | Relative net uptake rate (% of NC), Mean, OATP1B3-mediated E217βG uptake [5]: 67.7 % of NC

C[C@]12C=CC(=O)C=C1CC[C@@H]1[C@@H]2[C@@H](O)C[C@@]2(C)[C@H]1CC[C@]2(O)C(=O)CO [prednisolone]
formation of MPAG, % of NC (Mean) ([6]; 0.5 μM): 101 % of NC | formation of MPAG, % of NC (Mean) ([6]; 1 μM): 114 % of NC | formation of MPAG, % of NC (Mean) ([6]; 5 μM): 106 % of NC | formation of MPAG, % of NC (Mean) ([6]; 10 μM): 101 % of NC | formation of MPAG, % of NC (Mean) ([6]; 50 μM): 126 % of NC | formation of MPAG, % of NC (Mean) ([6]; 100 μM): 129 % of NC | change in MPAG formation from MPA (in words) ([6]; 96 h incubation of human hepatocytes): slight increase

CCCCC[C@H](O)/C=C/[C@H]1[C@H](O)CC(=O)[C@@H]1CCCCCCC(=O)O [Alprostadil, alprostadil]
Relative net uptake rate (% of NC), Mean, MRP2-mediated E217βG uptake [2]: 137 % of NC | Relative net uptake rate (% of NC), Mean, OAT3-mediated ES uptake [3]: 52.6 % of NC | Relative net uptake rate (% of NC), Mean, OATP1B1-mediated E217βG uptake [4]: 33.6 % of NC | Relative net uptake rate (% of NC), Mean, OATP1B3-mediated E217βG uptake [5]: 59.6 % of NC

C[C@]12CC[C@@H]3c4ccc(OS(=O)(=O)O)cc4CC[C@H]3[C@@H]1CCC2=O [ES, estrone-3-sulfate]
uptake ratio (UR) of probe substrate mediated by OAT3 ([7]; after probenecid treatment): 3.26 | uptake ratio (UR) of probe substrate mediated by OAT3 ([7]; without inhibitor): 7.37

C[C@@H](O)[C@H]1C(=O)N2C(C(=O)O)=C(S[C@@H]3CN[C@H](C(=O)N(C)C)C3)[C@H](C)[C@H]12 [Meropenem, meropenem]
Relative net uptake rate (% of NC), Mean, MRP2-mediated E217βG uptake [2]: 137 % of NC | Relative net uptake rate (% of NC), Mean, OAT3-mediated ES uptake [3]: 26.6 % of NC | Relative net uptake rate (% of NC), Mean, OATP1B1-mediated E217βG uptake [4]: 95.9 % of NC | Relative net uptake rate (% of NC), Mean, OATP1B3-mediated E217βG uptake [5]: 69.9 % of NC

CCN1CCN(C(=O)N[C@@H](C(=O)N[C@@H]2C(=O)N3C(C(=O)O)=C(CSc4nnnn4C)CS[C@H]23)c2ccc(O)cc2)C(=O)C1=O [Cefoperzone, cefoperazone]
Relative net uptake rate (% of NC), Mean, MRP2-mediated E217βG uptake [2]: 104 % of NC | Relative net uptake rate (% of NC), Mean, OATP1B1-mediated E217βG uptake [4]: 168 % of NC | Relative net uptake rate (% of NC), Mean, OATP1B3-mediated E217βG uptake [5]: 67.5 % of NC

O=C(c1cc(Cc2n[nH]c(=O)c3ccccc23)ccc1F)N1CCN(C(=O)C2CC2)CC1 [Olaparib, olaparib]
Relative net uptake rate (% of NC), Mean, MRP2-mediated E217βG uptake [2]: 136 % of NC | Relative net uptake rate (% of NC), Mean, OAT3-mediated ES uptake [3]: 70.2 % of NC | Relative net uptake rate (% of NC), Mean, OATP1B1-mediated E217βG uptake [4]: 99.3 % of NC | Relative net uptake rate (% of NC), Mean, OATP1B3-mediated E217βG uptake [5]: 72.4 % of NC

COc1c(C)c2c(c(O[C@@H]3O[C@H](C(=O)O)[C@@H](O)[C@H](O)[C@H]3O)c1C/C=C(\C)CCC(=O)O)C(=O)OC2 [MPAG, 7-O-mycophenolic acid glucuronide]
uptake ratio (UR) mediated by OAT3 ([7]; following incubation with probenecid): 1.19 | uptake ratio (UR) mediated by OAT3 ([7]; without inhibitor): 2.47 | substrate of OAT3 (in words) [7, 9]: weak substrate for OAT3 | uptake ratio (UR) mediated by OAT1 ([8]; 0.5, 1, and 10 μM): less than 2.0 | substrate of OAT1 (in words) [8, 9]: not a substrate of OAT1

COc1c(C)c2c(c(O)c1C/C=C(\C)CCC(=O)OCCN1CCOCC1)C(=O)OC2 [MMF, mycophenolate mofetil]
fraction of the absorbed drug eliminated in the urine ([1]; ref van Schaik et al., 2009): approximately 87%

CCCN(CCC)S(=O)(=O)c1ccc(C(=O)O)cc1 [probenecid]
reduction of OAT3-mediated MPAG uptake ([7]; 10 μM MPAG): 90.8% | reduction of OAT3-mediated ES uptake ([7]; probe substrate ES): 69.4%
